Measured values published in patent publication US20250243190A1, “NEW DEUTERATED RORGAMMA/RORGAMMAT INVERSE AGONISTS” (IMMUNIC AG, priority 2022, published 2025).

How the values were obtained:
[1] = Microsomal stability, rat liver microsomes; settings: 60 min
Procedure: (§1) The conversion to the metabolite was monitored by HPLC-MS/MS. Verapamil served as positive control.
(§2) The metabolism was monitored by HPLC-MS/MS. Verapamil served as positive control. The intrinsic clearance was calculated from the measured remaining compound values.

RORγt = biological target: T1, RORγt (Homo sapiens, UniProt P51449); assay: Indigo Biosciences Human RAR-related Orphan Receptor, Gamma Reporter Assay (in vitro inhibition of RORγt); assay type: cell-based; settings: RORγt reporter cells, luciferase readout, 22-24 h incubation; read-out: IC50 range
T1 sequence (P51449 269-508 limits assumed): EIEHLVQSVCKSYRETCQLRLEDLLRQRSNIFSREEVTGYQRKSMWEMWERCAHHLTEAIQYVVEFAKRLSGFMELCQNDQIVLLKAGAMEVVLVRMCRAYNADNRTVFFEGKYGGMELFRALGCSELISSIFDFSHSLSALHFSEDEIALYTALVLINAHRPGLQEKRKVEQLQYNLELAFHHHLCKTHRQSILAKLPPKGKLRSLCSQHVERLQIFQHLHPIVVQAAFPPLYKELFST
Procedure: The in vitro inhibition of RORγt was measured using Indigo Biosciences Human RAR-related Orphan Receptor, Gamma Reporter Assay System (Product #IB304001-32) as described in the technical manual. In brief, 200 μL of Reporter Cells is dispensed into wells of the assay plate and preincubated for 4-6 h. Following the pre-incubation period, culture media are discarded and 200 µL/well of the prepared 1×-concentration treatment media are added. Following 22-24 h incubation, treatment media are discarded and Luciferase Detection Reagent is added. The intensity of light emission (in units of ‘Relative Light Units’; RLU) from each assay well is quantified using a plate-reading luminometer. Average values of RLU were determined for each treatment concentration. Non-linear regression analyses were performed and IC50 values determined using GraphPad Prism software. Provided inverse-agonists ursolic acid served as positive control.

[2] = Cell viability assay accompanying the SARS-CoV-2 assay; assay type: cell-based; settings: cell viability assay of the SARS-CoV-2 test
Excerpt: (§3) The assay for viral replication (YFP) and the cell viability assay has been described in general in Pathogens 2021; 10:1076 and applied to compounds of the present invention furnished the following results: […]

[3] = Mouse pharmacokinetics, oral or intravenous cassette dosing; assay type: in vivo, mice (C57BL/6J); settings: C57BL/6J, whole blood; for AUC(0-t): read-out: AUC0-24 h; for bioavailability: 5 mg/kg oral vs 1 mg/kg intravenous, read-out: F (bioavailability)
Procedure: The pharmacokinetics of the compounds of the present invention was evaluated in 3 male and 3 female mice (C57BL/6J, 8 week old) after oral or intravenous cassette dosing to assess the oral bioavailability. Dose was 5 mg/kg (oral) and 1 mg/kg (intravenous), application volume was 5 mL/kg (oral) and 0.5 mL/kg (intravenous), vehicle was 5% solutol, 95% NaCl solution (at 0.9% saline concentration) for oral and 5% solutol, 5% Ethanol, 90% NaCl solution (at 0.9% saline concentration) for intravenous. At each designated time point (0.25, 0.5, 1, 2, 4, 8 and 24 h after dosing), 20 μL whole blood were collected from the tail vein into Li-heparin tubes, frozen on dry ice within 1-2 minutes of sampling and stored at −20° C. until processed for LC-MS analysis. The obtained data is as follows:
The pharmacokinetics of additional compounds of the present invention was evaluated in 3 female mice (C57BL/6J, 8 week old) after oral cassette dosing. Dose was 5 mg/kg, application volume was 5 mL/kg, vehicle was 5% solutol, 95% NaCl solution (at 0.9% saline concentration). At each designated time point (0.5, 1, 2, 4, 8 and 24 h after dosing), 20 μL whole blood were collected from the tail vein into Li-heparin tubes, frozen on dry ice within 1-2 minutes of sampling and stored at −20° C. until processed for LC-MS analysis. The obtained data is as follows:
The pharmacokinetics of additional compounds of the present invention was evaluated in 3 female mice (C57BL/6J, 8 week old) after oral cassette dosing. Dose was 5 mg/kg, application volume was 5 mL/kg, vehicle was 5% solutol, 95% NaCl solution (at 0.9% saline concentration). At each designated time point (0.25, 0.5, 1, 2, 4 and 8 h after dosing), 20 μL whole blood were collected from the tail vein into Li-heparin tubes, frozen on dry ice within 1-2 minutes of sampling and stored at −20° C. until processed for LC-MS analysis.

influenza A = assay: Antiviral activity on influenza A; assay type: cell-based; settings: Influenza A virus; read-out: EC50 range
Excerpt: (§4) The assay for measuring influenza A has been described in general in Antimicrob. Agents Chemother. 2015; 59:2062 and applied to compounds of the present invention furnished the following representative results: […]

[4] = Microsomal stability, human liver microsomes
Procedure: as §1, §2, §2

[5] = CC50 accompanying the influenza A assay; assay type: cell-based; settings: influenza A test
Excerpt: as §4

SARS-CoV-2 = assay: Antiviral activity on SARS-CoV-2, viral replication (YFP) assay; assay type: cell-based; settings: Severe acute respiratory syndrome coronavirus 2, read-out: EC50 range
Excerpt: as §3

[6] = Rat pharmacokinetics, oral or intravenous cassette dosing; assay type: in vivo, rats (strain Wistar RjHAN); settings: for AUC(0-inf) / AUC(0-t) / C0 / CL/F / Cmax / bioavailability: Wistar RjHAN, rat, plasma; for bioavailability: po 5 mg/kg vs iv 1 mg/kg
Procedure: The pharmacokinetics of the deuterated compounds of the present invention was evaluated in 3 male and 3 female rats (strain Wistar RjHAN, 7-8 week old) after oral or intravenous cassette dosing to asses the oral bioavailability. Rats are provided with a catheter in the jugular vein (2-3 days prior to blood sampling). At each designated time point (1, 2, 4, 8 and 24 h after dosing), 100 μL blood were collected into Li-heparin tubes, stored on ice until centrifugation (10 minutes at 3000 g, 4° C.) and plasma was prepared within 45 min after collection, frozen at −20° C. and stored at this temperature until processed for LC-MS analysis.

[7] = Microsomal stability, mouse liver microsomes; settings: 60 min
Procedure: as §1
The metabolism was monitored by HPLC-MS/MS.
Verapamil served as positive control. The intrinsic clearance was calculated from the measured remaining compound values.

[8] = tested on: respiratory syncytial virus (RSV, A2 strain expressing eGFP, Long strain or RSV-B); assay: Antiviral activity on RSV in HEp-2 cells; assay type: cell-based; settings: human respiratory syncytial virus, HEp-2, 45 h, read-out: IC50 (50% inhibitory concentration)
Procedure: One day before infection, 20,000 HEp-2 cells per well were seeded in a 96-well plate. Example 100 or DMSO vehicle controls were applied on cell monolayers at indicated concentrations and infected immediately after treatment with respiratory syncytial virus (RSV, A2 strain expressing eGFP, Long strain or RSV-B) at MOI 0.001. Cells were incubated for 45 h at 37° C. and 5% CO2. RSV infection was quantified either by counting green fluorescent infected cells using CTL-Immunospot reader or by ICC staining using RSV-targeting antibody. Shown as mean values of triplicate wells normalized to the corresponding vehicle-treated controls ±SD.

[9] = 3 female mice, 5 mg/kg oral cassette, sampling 0.5-24 h
[10] = female mice, 5 mg/kg oral, cassette
[11] = male mice, 5 mg/kg oral, cassette

[2H]C([2H])(OC1CC1)c1c(-c2c(F)cccc2Cl)noc1-c1cnn(-c2cccc(Cl)c2)c1C(F)(F)F [Example 102, 3-(2-Chloro-6-fluorophenyl)-5-(1-(3-chlorophenyl)-5-(trifluoromethyl)-1H-pyrazol-4-yl)-4-(cyclopropoxymethyl-d2)isoxazole]
microsomal CLint ([1]; rat liver microsomes 9078001 (Corning), Example 102 experiment): 29.4 µL/min/mg | IC50 (RORγt): 0.01 to 0.1 µM | CC50 [2]: 17 µM | Cmax [3, 9]: 272 ng/mL | half-life [3, 9]: 7.2 h | AUC(0-t) [3, 9]: 970 ng·h/mL | EC50 (influenza A): 0.1 to 1 µM | microsomal CLint ([4]; both): 6.7 µL/min/mg | CC50 [5]: > 100 µM | EC50 (SARS-CoV-2): < 0.1 µM

[2H]C([2H])(CC(C)(C)O)n1ncc(-c2onc(-c3c(F)cccc3Cl)c2-c2ncccn2)c1C(F)(F)F [Example 3, 4-(4-(3-(2-Chloro-6-fluorophenyl)-4-(pyrimidin-2-yl)isoxazol-5-yl)-5-(trifluoromethyl)-1H-pyrazol-1-yl)-2-methylbutan-4,4-d2-2-ol]
AUC(0-inf) ([6]; female rats, iv 1 mg/kg): 3780 ng·h/mL | AUC(0-t) ([6]; female rats, iv 1 mg/kg): 3660 ng·h/mL | C0 ([6]; female rats, iv 1 mg/kg): 2090 ng/mL | AUC(0-inf) ([6]; female rats, po 5 mg/kg): 2950 ng·h/mL | AUC(0-t) ([6]; female rats, po 5 mg/kg): 2930 ng·h/mL | CL/F ([6]; female rats, po 5 mg/kg): 132 mL/min/kg | Cmax ([6]; female rats, po 5 mg/kg): 629 ng/mL | bioavailability ([6]; female rats): 16% | AUC(0-inf) ([6]; male rats, iv 1 mg/kg): 3970 ng·h/mL | AUC(0-t) ([6]; male rats, iv 1 mg/kg): 3720 ng·h/mL | C0 ([6]; male rats, iv 1 mg/kg): 2460 ng/mL | AUC(0-inf) ([6]; male rats, po 5 mg/kg): 692 ng·h/mL | AUC(0-t) ([6]; male rats, po 5 mg/kg): 649 ng·h/mL | CL/F ([6]; male rats, po 5 mg/kg): 343 mL/min/kg | Cmax ([6]; male rats, po 5 mg/kg): 215 ng/mL | bioavailability ([6]; male rats): 3.5% | t1/2z ([6]; female rats, iv 1 mg/kg): 6.6 h | t1/2z ([6]; female rats, po 5 mg/kg): 3.2 h | t1/2z ([6]; male rats, iv 1 mg/kg): 7.2 h | t1/2z ([6]; male rats, po 5 mg/kg): 1.9 h | microsomal CLint ([1]; rat liver microsomes batch 1910100 (Xenotech)): 31.4 µL/min/mg | microsomal CLint ([1]; rat liver microsomes batch 4085002 (Corning)): 29.7 µL/min/mg | microsomal CLint ([1]; rat liver microsomes batch 9078001 (Corning)): 30.2 µL/min/mg | IC50 (RORγt): 0.01 to 0.1 µM | CC50 [2]: 22 µM | bioavailability ([3]; female mice): 34% | half-life [3, 10]: 1.5 h | AUC(0-t) [3, 10]: 771 ng·h/mL | Cmax ([3]; female mice, 5 mg/kg oral, cassette, sampling to 24 h): 301 ng/mL | bioavailability ([3]; male mice): 93% | half-life [3, 11]: 2.3 h | AUC(0-t) [3, 11]: 1040 ng·h/mL | Cmax ([3]; male mice, 5 mg/kg oral, cassette, sampling to 24 h): 392 ng/mL | microsomal CLint ([4]; both): 2.2 µL/min/mg | microsomal CLint ([4]; male): 1.1 µL/min/mg | microsomal CLint ([7]; female, mouse, mouse liver microsomes batch 4338001 female (Corning)): 43.9 µL/min/mg | microsomal CLint ([7]; female, mouse, mouse liver microsomes batch MDO female (Bioreclamation IVT)): 50.3 µL/min/mg | microsomal CLint ([7]; male, mouse, mouse liver microsomes batch 0010003 male (Corning)): 24 µL/min/mg | EC50 (SARS-CoV-2): < 0.1 µM

[2H]C(C)(O)C([2H])([2H])n1ncc(-c2onc(-c3c(F)cccc3Cl)c2-c2ncccn2)c1C(F)(F)F (centres unmarked) [Example 1/1, 1-(4-(3-(2-Chloro-6-fluorophenyl)-4-(pyrimidin-2-yl)isoxazol-5-yl)-5-(trifluoromethyl)-1H-pyrazol-1-yl)propan-1,1,2-d3-2-ol]
IC50 (RORγt): 0.01 to 0.1 µM | microsomal CLint ([4]; both): 7.8 µL/min/mg

CC(O)Cn1ncc(-c2onc(-c3c(F)cccc3Cl)c2-c2ncccn2)c1C(F)(F)F (centres unmarked) [Comparative Example C1/2, reference compound]
microsomal CLint ([4]; both): 15.7 µL/min/mg

[2H]C([2H])([2H])OC(=O)c1c(-c2c(F)cccc2Cl)noc1-c1cnn(-c2cccc(Cl)c2)c1C(F)(F)F [Example 100, Methyl-d3 3-(2-chloro-6-fluorophenyl)-5-(1-(3-chlorophenyl)-5-(trifluoromethyl)-1H-pyrazol-4-yl)isoxazole-4-carboxylate]
IC50 (RORγt): < 0.01 µM | CC50 [2]: 50 µM | Cmax [3, 9]: 50.5 ng/mL | half-life [3, 9]: 6.4 h | AUC(0-t) [3, 9]: 201 ng·h/mL | EC50 (influenza A): < 0.1 µM | CC50 [5]: 82 µM | microsomal CLint ([7]; male, CD-1, mouse, mouse liver microsomes 10003 CD-1, male (Corning), Example 100 experiment): 24.4 µL/min/mg | EC50 (SARS-CoV-2): < 0.1 µM | IC50 [8]: < 0.05 µM
